Test results published in article PMC10179080, “In Vivo and In Vitro Characterization of Close Analogs of Compound KA-11, a New Antiseizure Drug Candidate” (International Journal of Molecular Sciences, 2023).
Marks after values point to notes of the source that are not given here.

Columns and labels:
[1] = test system: tonic–clonic seizures in mice; conditions: i.p.; cited from earlier work
[2] = test system: PTZ-induced clonic seizures in mice; conditions: i.p., cited from earlier work
[3] = test system: 6-Hz-induced psychomotor seizures in mice; conditions: i.p., cited from earlier work
CYP2D6 = target: T1, CYP2D6 (Homo sapiens, UniProt P10635); set-up: method as in PMID 30247871; conditions: cited from earlier work
T1 construct: purchased Promega, Madison, WI, USA

[4] = target: T2, Calcium Cav2.2 channel (antagonist radioligand) (Rattus norvegicus, UniProt Q02294); set-up: method as in PMID 26052884; conditions: 100 µM; cited from earlier work
T2 construct: rat cerebral cortex; tissue Eurofins Laboratories; host or cells: rat cerebral cortex

[5] = test system: Calcium Cav1.2 channels (diltiazem site, antagonist radioligand); set-up: method as in PMID 30247871; conditions: 100 µM; cited from earlier work
[6] = target: T3, TRPV1 (VR1) (antagonist effect) (Homo sapiens, UniProt Q8NER1); assay: TRPV1 antagonist functional assay (intracellular Ca2+, CHO cells); type: cell-based; conditions: CHO; 100 µM; not published before; read-out: % Inhibition of control specific binding (functional, antagonist effect)
T3 construct: host or cells: CHO cells
Protocol: (§1) Binding studies were carried out commercially in Eurofins Laboratories (Poitiers, France or New Taipei City, Taiwan).

[7] = target: GABAA (α1,β2,γ2) (agonist radioligand) (Homo sapiens, UniProt P14867+P47870); set-up: method as in PMID 30247871; conditions: 100 µM; cited from earlier work
hepatoma HepG2 = test system: hepatoma HepG2; set-up: method as in PMID 30247871; conditions: 10 µM; cited from earlier work
[8] = test system: neuromuscular strength in mice; set-up: method as in PMID 34074008; conditions: single administration 30 mg/kg; cited from earlier work
[9] = test system: motor performance in mice; conditions: i.p.; cited from earlier work
[10] = test system: Glutamate (NMDA, nonselective, antagonist radioligand, [3H] Ifenprodil radioligand); set-up: method as in PMID 30247871; conditions: 100 µM; cited from earlier work
[11] = test system: seizure susceptibility in mice; set-up: method as in PMID 28412310; conditions: 100 mg/kg; cited from earlier work
hERG potassium channel = target: T4, hERG potassium channel (Homo sapiens, UniProt Q12809); assay: Radioligand binding, potassium channel (hERG); conditions: human, human recombinant HEK-293 cells expressing hERG, KA-11 value not published before, read-out: % Inhibition of Control Specific Binding
T4 construct: host or cells: HEK-293 cells
Protocol: Dysfunction of both sodium and calcium ion channels is known to be one of the crucial reasons behind the pathogenesis of seizures. Consequently, these ion channels are molecular targets for several clinically important ASDs such as lacosamide, lamotrigine, carbamazepine, oxcarbazepine and compounds currently under preclinical and clinical studies. Thus, for KA-228 and KA-232, we tested herein their binding profile toward the aforementioned ion channels at concentrations of 10 and 100 µM (Table 3). […] Apart from in vitro studies focused on explaining the mechanism of action, KA-232 was additionally tested for its interaction with the potassium channel (hERG) which is recognized as one of the most important ‘off-targets’ responsible for harmful arrhythmogenic activity. Thus, the interaction of potential drug candidates with hERG must be excluded at an early stage of development.
as §1

[12] = set-up: method as in PMID 26052884; conditions: cited from earlier work
[13] = test system: Calcium Cav1.2 channel (verapamil site, antagonist radioligand); set-up: method as in PMID 30247871; conditions: 100 µM; cited from earlier work
[14] = test system: Calcium Cav1.2 channels (dihydropyridine site, antagonist radioligand); set-up: method as in PMID 26052884; conditions: 100 µM; cited from earlier work
[15] = test system: Glutamate (AMPA, nonselective, antagonist radioligand, [3H] AMPA radioligand); set-up: method as in PMID 30247871; conditions: 100 µM; cited from earlier work
CYP3A4 = target: T5, CYP3A4 (Homo sapiens, UniProt P08684); set-up: method as in PMID 26052884; conditions: 10 µM; cited from earlier work
T5 construct: purchased Promega, Madison, WI, USA

Na^+ channel (site 2) = test system: Na^+ channel (site 2); set-up: method as in PMID 26052884; conditions: 100 µM; cited from earlier work
[16] = set-up: method as in PMID 30247871; conditions: cited from earlier work

T1 sequence (P10635 whole entry): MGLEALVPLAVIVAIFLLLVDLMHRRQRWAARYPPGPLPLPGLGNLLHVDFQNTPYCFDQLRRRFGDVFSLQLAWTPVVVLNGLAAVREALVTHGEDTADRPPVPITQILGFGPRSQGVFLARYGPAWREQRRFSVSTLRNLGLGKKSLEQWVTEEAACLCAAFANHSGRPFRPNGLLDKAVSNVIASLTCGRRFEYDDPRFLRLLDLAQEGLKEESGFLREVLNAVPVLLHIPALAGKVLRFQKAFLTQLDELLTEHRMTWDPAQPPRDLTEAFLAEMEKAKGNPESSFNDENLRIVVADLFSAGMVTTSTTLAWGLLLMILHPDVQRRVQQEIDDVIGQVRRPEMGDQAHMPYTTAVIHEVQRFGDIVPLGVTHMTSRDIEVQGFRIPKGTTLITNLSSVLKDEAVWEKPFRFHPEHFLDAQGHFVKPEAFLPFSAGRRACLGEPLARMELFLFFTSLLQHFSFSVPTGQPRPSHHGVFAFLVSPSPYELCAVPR
T4 sequence (Q12809 whole entry): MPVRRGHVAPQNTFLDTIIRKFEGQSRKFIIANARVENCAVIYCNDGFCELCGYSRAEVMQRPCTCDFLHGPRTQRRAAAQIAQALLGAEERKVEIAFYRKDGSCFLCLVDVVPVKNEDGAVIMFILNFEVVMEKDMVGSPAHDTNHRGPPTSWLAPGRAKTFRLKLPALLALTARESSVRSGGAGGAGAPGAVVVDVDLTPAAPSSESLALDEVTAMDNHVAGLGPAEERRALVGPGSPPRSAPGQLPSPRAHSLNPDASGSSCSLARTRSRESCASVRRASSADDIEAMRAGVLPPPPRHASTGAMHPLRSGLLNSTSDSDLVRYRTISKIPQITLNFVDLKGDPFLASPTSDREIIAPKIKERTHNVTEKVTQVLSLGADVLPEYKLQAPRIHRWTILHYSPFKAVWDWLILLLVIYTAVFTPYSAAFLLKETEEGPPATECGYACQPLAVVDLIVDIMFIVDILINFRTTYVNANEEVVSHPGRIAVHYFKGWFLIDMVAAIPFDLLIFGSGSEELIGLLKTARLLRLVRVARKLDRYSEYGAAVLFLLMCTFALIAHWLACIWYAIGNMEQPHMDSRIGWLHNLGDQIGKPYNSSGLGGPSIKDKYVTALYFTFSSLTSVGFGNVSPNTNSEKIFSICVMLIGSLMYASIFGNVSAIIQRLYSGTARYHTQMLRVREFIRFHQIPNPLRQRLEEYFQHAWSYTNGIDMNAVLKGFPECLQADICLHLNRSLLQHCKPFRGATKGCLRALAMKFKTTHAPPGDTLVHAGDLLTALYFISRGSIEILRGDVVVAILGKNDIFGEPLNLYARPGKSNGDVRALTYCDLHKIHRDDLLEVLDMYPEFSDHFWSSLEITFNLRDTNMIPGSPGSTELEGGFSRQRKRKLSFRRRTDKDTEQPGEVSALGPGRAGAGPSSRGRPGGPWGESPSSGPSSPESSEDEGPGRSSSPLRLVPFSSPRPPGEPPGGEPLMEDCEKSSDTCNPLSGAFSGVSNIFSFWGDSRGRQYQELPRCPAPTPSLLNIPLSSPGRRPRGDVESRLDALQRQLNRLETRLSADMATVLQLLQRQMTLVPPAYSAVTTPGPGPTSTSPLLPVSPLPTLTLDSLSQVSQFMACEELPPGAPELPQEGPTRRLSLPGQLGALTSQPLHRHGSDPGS
Sequence of GABAA (α1,β2,γ2) (agonist radioligand) (P14867 28-456): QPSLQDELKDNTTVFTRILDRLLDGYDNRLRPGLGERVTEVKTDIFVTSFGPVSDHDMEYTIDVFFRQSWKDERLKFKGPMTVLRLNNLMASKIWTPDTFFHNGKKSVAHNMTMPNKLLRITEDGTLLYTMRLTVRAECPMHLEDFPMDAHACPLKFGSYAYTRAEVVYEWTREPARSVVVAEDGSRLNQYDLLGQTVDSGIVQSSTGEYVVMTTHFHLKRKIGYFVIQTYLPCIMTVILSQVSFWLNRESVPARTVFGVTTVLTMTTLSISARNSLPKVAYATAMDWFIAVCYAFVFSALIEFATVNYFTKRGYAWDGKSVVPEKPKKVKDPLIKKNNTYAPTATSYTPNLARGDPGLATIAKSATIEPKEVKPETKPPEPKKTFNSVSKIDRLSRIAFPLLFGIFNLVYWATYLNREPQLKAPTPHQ
Sequence of GABAA (α1,β2,γ2) (agonist radioligand) (P47870 25-512 limits assumed): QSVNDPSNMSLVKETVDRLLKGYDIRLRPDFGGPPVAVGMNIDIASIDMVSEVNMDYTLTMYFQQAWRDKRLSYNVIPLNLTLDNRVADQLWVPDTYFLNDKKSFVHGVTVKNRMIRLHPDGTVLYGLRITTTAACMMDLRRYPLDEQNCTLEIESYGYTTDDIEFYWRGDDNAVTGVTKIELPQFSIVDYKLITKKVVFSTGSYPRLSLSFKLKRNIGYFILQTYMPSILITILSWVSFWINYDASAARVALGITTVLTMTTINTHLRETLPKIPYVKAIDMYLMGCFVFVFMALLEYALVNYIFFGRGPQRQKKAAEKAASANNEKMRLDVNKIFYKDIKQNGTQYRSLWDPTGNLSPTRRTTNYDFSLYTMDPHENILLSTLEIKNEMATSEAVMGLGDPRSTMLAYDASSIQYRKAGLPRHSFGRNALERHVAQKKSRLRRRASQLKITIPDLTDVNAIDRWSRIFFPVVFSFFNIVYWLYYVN
Sequence of GABAA (α1,β2,γ2) (agonist radioligand) (P18507 40-475 partner): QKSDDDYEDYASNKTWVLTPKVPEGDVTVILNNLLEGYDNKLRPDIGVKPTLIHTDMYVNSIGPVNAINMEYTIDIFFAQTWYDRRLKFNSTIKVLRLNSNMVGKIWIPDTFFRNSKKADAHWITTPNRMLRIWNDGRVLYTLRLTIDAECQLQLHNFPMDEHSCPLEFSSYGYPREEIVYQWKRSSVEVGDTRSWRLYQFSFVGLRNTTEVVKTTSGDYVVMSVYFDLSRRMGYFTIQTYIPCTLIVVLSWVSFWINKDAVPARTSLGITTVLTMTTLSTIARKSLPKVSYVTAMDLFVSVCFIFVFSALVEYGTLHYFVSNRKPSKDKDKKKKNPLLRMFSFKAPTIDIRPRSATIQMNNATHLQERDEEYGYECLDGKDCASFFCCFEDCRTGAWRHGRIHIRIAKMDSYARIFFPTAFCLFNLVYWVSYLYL
T3 sequence (Q8NER1 whole entry): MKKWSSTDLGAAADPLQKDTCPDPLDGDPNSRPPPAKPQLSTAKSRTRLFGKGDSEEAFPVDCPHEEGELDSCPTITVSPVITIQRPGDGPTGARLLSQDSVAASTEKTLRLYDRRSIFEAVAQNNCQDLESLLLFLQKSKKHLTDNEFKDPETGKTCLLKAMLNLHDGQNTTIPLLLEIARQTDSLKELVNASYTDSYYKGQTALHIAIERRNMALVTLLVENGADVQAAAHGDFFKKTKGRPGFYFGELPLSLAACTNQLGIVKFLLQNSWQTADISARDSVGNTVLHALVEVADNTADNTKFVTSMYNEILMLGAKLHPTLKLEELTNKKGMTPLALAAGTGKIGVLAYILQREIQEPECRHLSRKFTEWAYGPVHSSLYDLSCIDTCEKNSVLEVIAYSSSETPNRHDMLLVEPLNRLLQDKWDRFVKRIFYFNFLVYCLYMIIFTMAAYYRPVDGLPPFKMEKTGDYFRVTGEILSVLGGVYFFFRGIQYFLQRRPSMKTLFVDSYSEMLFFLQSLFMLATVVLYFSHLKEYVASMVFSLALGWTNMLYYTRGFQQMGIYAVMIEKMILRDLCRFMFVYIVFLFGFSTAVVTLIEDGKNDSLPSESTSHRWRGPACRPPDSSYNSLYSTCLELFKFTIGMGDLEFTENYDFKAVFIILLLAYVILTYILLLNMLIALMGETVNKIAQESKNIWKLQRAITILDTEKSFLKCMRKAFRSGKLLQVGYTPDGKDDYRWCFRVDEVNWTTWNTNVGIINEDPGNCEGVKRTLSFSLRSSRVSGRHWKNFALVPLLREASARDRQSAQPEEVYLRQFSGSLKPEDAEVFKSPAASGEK
T5 sequence (P08684 whole entry): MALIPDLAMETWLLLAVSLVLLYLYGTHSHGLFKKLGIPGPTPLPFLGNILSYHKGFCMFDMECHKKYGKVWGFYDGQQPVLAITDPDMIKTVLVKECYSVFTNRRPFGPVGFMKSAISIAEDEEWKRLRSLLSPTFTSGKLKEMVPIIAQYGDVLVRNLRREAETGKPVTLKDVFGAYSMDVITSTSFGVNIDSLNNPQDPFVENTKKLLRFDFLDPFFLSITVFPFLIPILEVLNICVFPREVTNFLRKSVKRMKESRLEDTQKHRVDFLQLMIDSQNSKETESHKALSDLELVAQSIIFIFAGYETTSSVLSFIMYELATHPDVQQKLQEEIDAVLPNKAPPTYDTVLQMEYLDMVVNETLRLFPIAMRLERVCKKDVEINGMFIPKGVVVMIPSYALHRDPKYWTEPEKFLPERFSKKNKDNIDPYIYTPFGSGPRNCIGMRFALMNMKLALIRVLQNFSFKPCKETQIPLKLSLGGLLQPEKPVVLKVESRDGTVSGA

**Q.** For `CC(C(=O)N1CCN(c2cccc(C(F)(F)F)c2)CC1)N1C(=O)CCC1=O` (stereo not shown) [KA-11], which “ED50 MES ± SD” value [1] is on record?
**A.** 88.4 ± 34.16 mg/kg

**Q.** What about the “TI (TD50/ED50), MES” value [1] of the same compound?
**A.** > 16.97

**Q.** What about the “ED50 PTZ ± SD” value ([2]; scPTZ) of the same compound?
**A.** 59.9 ± 19.55 mg/kg

**Q.** And the “TI (TD50/ED50), PTZ” value [2]?
**A.** > 25.04

**Q.** What about the “ED50 6 Hz ± SD” value ([3]; 32 mA) of the same compound?
**A.** 21.0 ± 32.19 mg/kg

**Q.** And the “TI (TD50/ED50), 6 Hz” value [3]?
**A.** > 71.43

**Q.** What about the “CYP2D6 activity (% of control ± SD)” value (CYP2D6; 10 µM) of the same compound?
**A.** 122.30 ± 2.02 [9] % of control

**Q.** And the “effect on CYP2D6 activity” value (CYP2D6; at 1 and 10 µM)?
**A.** slight induction

**Q.** And the “% Inhibition of Control Specific Binding” value [4]?
**A.** 13.9 (100) * %

**Q.** What about the “% Inhibition of Control Specific Binding” value [5] of the same compound?
**A.** 44.9 (100) ^# %

**Q.** And the inhibition at 100 µM [6]?
**A.** 33%

**Q.** And the “% Inhibition of Control Specific Binding” value [7]?
**A.** −28.1 (100) ^# %

**Q.** And the “HepG2 viability (% of control ± SD)” value (hepatoma HepG2)?
**A.** 99.78 ± 2.18 [9] % of control

**Q.** What about the “effect on muscle strength” value [8] of the same compound?
**A.** no statistically significant abnormalities

**Q.** What about the TD50 [9] of the same compound?
**A.** >1500 mg/kg

**Q.** What about the “% Inhibition of Control Specific Binding” value [10] of the same compound?
**A.** 13.0 (100) ^# %

**Q.** And the “effect on thresholds for all studied endpoints (myoclonic twitch, generalized clonus, forelimb tonus)” value [11]?
**A.** significant increase

**Q.** What about the inhibition at 60 min, 100 µM (hERG potassium channel) of the same compound?
**A.** 15%

**Q.** And the “Metabolic stability (% remaining after incubation with HLMs)” value [12]?
**A.** 73.49 [6] %

**Q.** What about the “% Inhibition of Control Specific Binding” value [13] of the same compound?
**A.** 1.5 (100) ^# %

**Q.** What about the “% Inhibition of Control Specific Binding” value [14] of the same compound?
**A.** 64.2 (100) * %

**Q.** And the “% Inhibition of Control Specific Binding” value [15]?
**A.** −2.9 (100) ^# %

**Q.** And the “CYP3A4 activity (% of control ± SD)” value (CYP3A4)?
**A.** 99.21 ± 4.9 [6] % of control

**Q.** And the “% Inhibition of Control Specific Binding” value (Na^+ channel (site 2))?
**A.** 37.4 (100) * %

**Q.** What about the “PAMPA Pe ± SD” value [16] of the same compound?
**A.** 27.1 ± 3.8 ^b [9] 10^−6 cm/s
